One data set relates to Ewing Sarcoma xenograft. To be noted: Ewing Sarcoma xenograft models; cited from earlier work.
The next data set concerns ES xenografts. In words: ES xenograft tumor regression in mice. In kind it is in vivo. To be noted: 400 mg/kg intraperitoneal, three days, 6 total doses, tumors 300 mm^3. The protocol: FIG. 13A: Mice with ES xenografts were treated with 400 mg/kg compound or controls as indicated. Starting well-established tumors (300 mm^3), mice were treated with intraperitoneal compound for three days, 6 total doses. FIG. 13B: H and E stained tumors from same experiment.
YK-4-279 upon xenograft GBM tumors is evaluated by treating animals seven days after tumor injection and those with symptomatic tumors. Early tumors are screened with Xenogen, and size correlated with MRI, and treatment started when animals 5 mm^3 lesions. YK-4-279 passes the blood-brain barrier. […] The study will measure brain tumor volumes, animal symptoms, and overall survival. At necropsy, tumors and normal adjacent brain will be evaluated by immunohistochemistry for GBM markers, apoptosis, and FLI1 regulated target genes. […] FIG. 13A: Mice with ES xenografts were treated with 400 mg/kg compound or controls as indicated. Starting well-established tumors (300 mm^3), mice were treated with intraperitoneal compound for three days, 6 total doses. FIG. 13B: H and E stained tumors from same experiment.

The subject of data set [1] is TC32 (human ESFT cell line). In words: IC50 activity in TC32 cells. In kind it is cell-based. The protocol: (§1) Compounds provided in Table 2 were prepared using methods similar to those described herein. The structures and IC50 activities of particular compounds in PANC1 (a human pancreatic carcinoma), TC32 (human ESFT cell line), and TC71 (human ESFT cell line) cells are summarized in Table 2.

Data set [2] can be described thus: Rat pharmacokinetics, IV injection, observation. It counts as in vivo. Particulars: rats, rapid injection; did not occur with slower infusion. From the text:
One of the significant challenges in getting novel targeted therapy into GBM is overcoming the blood-brain barrier (BBB).

The next data set has as its system ESFT cells. In words: Growth inhibition of ESFT cells. In kind it is cell-based. To be noted: ESFT cells growing in monolayer. The protocol:
(§2) Growth inhibition of ESFT cells was measured for various concentrations of particular compounds.

For data set [3], the system named is TC71 (human ESFT cell line). In words: IC50 activity in TC71 cells. It counts as cell-based. The protocol: as §1, §2
Another data set concerns GBM cell lines. Nature of the data set: Growth of GBM cell lines. In kind it is cell-based. To be noted: range over GBM cell lines.
A further data set concerns the target T1, EWS-FLI1/RHA interaction (Homo sapiens, UniProt Q01543+Q01844).
T1 construct: endogenous in cells; host or cells: TC32
T1 sequence (Q01844+Q01543 with tags, fused parts or gaps): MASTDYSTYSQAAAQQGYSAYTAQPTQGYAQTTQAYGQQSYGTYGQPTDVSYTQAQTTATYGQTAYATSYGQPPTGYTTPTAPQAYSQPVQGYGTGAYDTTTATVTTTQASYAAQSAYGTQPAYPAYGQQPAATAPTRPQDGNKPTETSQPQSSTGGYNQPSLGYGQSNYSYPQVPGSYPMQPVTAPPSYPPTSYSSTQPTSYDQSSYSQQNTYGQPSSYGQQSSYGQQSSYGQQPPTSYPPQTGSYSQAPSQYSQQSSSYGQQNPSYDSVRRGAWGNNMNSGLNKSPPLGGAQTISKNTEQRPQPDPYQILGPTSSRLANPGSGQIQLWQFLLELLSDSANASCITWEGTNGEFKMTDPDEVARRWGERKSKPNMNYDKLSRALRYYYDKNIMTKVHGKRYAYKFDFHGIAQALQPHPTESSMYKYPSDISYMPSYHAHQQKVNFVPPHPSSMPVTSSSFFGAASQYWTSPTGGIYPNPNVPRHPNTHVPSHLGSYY
Nature of the data set: Immunoblot/co-precipitation of RHA and EWS-FLI1 from treated TC32 cells. In kind it is cell-based. To be noted: TC32 cell lysates.

Data set [4] concerns the target T2, EWS-FLI1 (Homo sapiens, UniProt Q01543).
T2 sequence (Q01543 220-452 limits assumed): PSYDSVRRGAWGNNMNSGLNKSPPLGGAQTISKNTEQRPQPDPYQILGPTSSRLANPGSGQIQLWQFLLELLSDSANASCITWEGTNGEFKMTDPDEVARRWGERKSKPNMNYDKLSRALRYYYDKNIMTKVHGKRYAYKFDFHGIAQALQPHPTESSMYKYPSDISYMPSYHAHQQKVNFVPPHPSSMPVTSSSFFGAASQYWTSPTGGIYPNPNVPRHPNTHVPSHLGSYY
Particulars: read-out: affinity (KD) for EWS-FLI1; cited from earlier work.

The subject of data set [5] is PANC1 (a human pancreatic carcinoma). Nature of the data set: IC50 activity in PANC1 cells. In kind it is cell-based. Here is the method: as §1
A further data set deals with BSA (Bos taurus, UniProt P02769). Nature of the data set: Surface plasmon resonance binding to non-specific protein BSA. Particulars: SPR, read-out: affinity for BSA. For orientation: Surface plasmon resonance follows binding to a sensor surface in real time, without labels.
In data set [6] the target is T3, EWS-FLI1 (Homo sapiens, UniProt Q01543+Q01844).
T3 sequence (Q01543 220-452 limits assumed): T2 sequence (Q01543 220-452 limits assumed)
Particulars: enantiomer specificity; cited from earlier work.

[7] abbreviates: Homo sapiens, TC-32, TC32 cells.
The mark [8] stands for this setting: Homo sapiens, TC-71, TC71 cells.
[9] abbreviates: Homo sapiens, PANC-1, PANC1 cells.

Read-outs that look alike come from different tables or passages of the source.

BSA, sequence (P02769 25-607): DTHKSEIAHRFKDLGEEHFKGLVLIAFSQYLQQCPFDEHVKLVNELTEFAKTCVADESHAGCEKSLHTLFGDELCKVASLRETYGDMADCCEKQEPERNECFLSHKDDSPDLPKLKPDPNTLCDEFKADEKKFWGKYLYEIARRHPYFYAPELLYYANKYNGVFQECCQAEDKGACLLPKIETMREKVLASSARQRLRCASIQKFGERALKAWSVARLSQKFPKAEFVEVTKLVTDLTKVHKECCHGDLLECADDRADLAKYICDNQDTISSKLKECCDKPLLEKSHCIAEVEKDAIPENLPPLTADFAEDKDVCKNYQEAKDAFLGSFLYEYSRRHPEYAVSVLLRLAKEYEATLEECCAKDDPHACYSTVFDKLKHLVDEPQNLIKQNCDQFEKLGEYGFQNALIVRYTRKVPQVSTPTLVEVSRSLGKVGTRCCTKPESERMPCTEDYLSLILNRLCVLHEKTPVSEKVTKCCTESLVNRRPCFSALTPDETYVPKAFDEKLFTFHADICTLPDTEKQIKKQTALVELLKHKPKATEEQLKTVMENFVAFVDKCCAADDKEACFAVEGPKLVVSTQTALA
Description for BSA: Steady state kinetics were measured on a Biacore T100 instrument, as previously described (Erkizan H V, Kong Y, Merchant M, Schlottmann S, Barber-Rotenberg J S, Yuan L, et al. A small molecule blocking oncogenic protein EWS-FLI1 interaction with RNA helicase A inhibits growth of Ewing's sarcoma. Nat Med. 2009 July; 15(7):750-6. PubMed PMID: 19584866. Eng; Barber-Rotenberg J S, Selvanath), SPR sensograms are not shown.
Excerpt for GBM cell lines: Seven cell lines were selected with a spectrum of genetic abnormalities that occur in GBM. […] A panel of GBM cell lines were acquired that represent the heterogeneity of the disease.

On to `COc1ccc(C(=O)CC2(O)C(=O)Nc3c(Cl)ccc(Cl)c32)cc1` (racemic) [YK-4-279], for which the tumor growth result in the data set with Ewing Sarcoma xenograft is listed as “reduced tumor growth”. The tumor response result in the data set with ES xenografts is listed as “significant tumor regression”. Also, the half-inhibitory concentration (IC50) – broadly, the midpoint of a concentration-inhibition curve – is 0.94 µM in [1] (setting [7]); 0.766 µM in data set [1] (TC32 cells); 0.9 µM in the data set on ESFT cells; 0.918 µM in [3] (setting [8]); 1.43 µM in data set [3] (TC71 cells); 0.5 to 9.9 µM with GBM cell lines. Moreover, the IC50 in data set [5] (setting [9]) came out at 20 µM; in [5] (PANC1 cells, read-out: IC50 PANC 1) it was 34 µM. Besides, the “observation after IV injection” value in data set [2] is “rats became somnolent after rapid injection”. Moreover, the “interaction of RHA with EWS-FLI1” value at EWS-FLI1/RHA interaction (co-precipitation) is reported as “did disrupt their interactions”. In addition, the “level of EWS-FLI1 or RHA” value at EWS-FLI1/RHA interaction (immunoblot) is “did not directly affect the level of EWS-FLI1 or RHA”. Moreover, the Kd at EWS-FLI1 [4] is 9.5 µM; at BSA, 122 µM.
`COc1ccc(C(=O)C[C@@]2(O)C(=O)Nc3c(Cl)ccc(Cl)c32)cc1` [(S)-YK-4-279]: in the data set with ES xenografts, the tumor response entry is recorded as “significant tumor regression”. Further, the “inhibition of functional activities of EWS-FLI1” value at EWS-FLI1 [6] is listed as “able to inhibit the functional activities of EWS-FLI1”.
For `O=C(CC1(O)C(=O)Nc2c(Cl)ccc(Cl)c21)c1ccc([N+](=O)[O-])cc1` (centres unmarked) [YK-4-286], the IC50 was 4.63 µM in data set [1] (setting [7]), 9.15 µM in data set [3] (setting [8]) and ≥ 40 µM in data set [5] (setting [9]).
The matching figures for `O=C(CC1(O)C(=O)Nc2c(Cl)ccc(Cl)c21)c1ccc(Cl)c(Cl)c1` (centres unmarked) [YK-4-287]: 6.32 µM, 15.8 µM and 12.6 µM.
For `O=C(CC1(O)C(=O)Nc2c(Cl)ccc(Cl)c21)c1ccc(Cl)c(Cl)c1Cl` (centres unmarked) [YK-4-288] the same measures were 3 µM, 9.35 µM and ≥ 40 µM.
For `O=C(CC1(O)C(=O)Nc2c(Cl)ccc(Cl)c21)c1ccc(O)cc1` (centres unmarked) [YK-4-289] the same measures were ≥ 40 µM, ≥ 40 µM and ≥ 40 µM.

(Values after US9511050B2, “Methods and compositions for treating cancer” (GEORGETOWN UNIVERSITY, priority 2013, dated 2016).)
